This note sets out measurements from US20210252159A1, “CONJUGATES OF CARTILAGE-HOMING PEPTIDES” (priority 2018, published 2021).

Data set [1] is described as follows: Rat CIA biodistribution study (QWBA). In kind it is in vivo. Conditions: CIA rats. On the procedure: 50 uCi, 400 nmol of each compound was given intravenously (IV) through the tail vein and allowed to circulate 1 hour, 3 hours, or 24 hours. Rats were euthanized by CO2 asphyxiation, shaved, and frozen in dry ice chilled hexane. QWBA was performed and quantified as described.
Frozen carcasses were allowed to off gas hexane overnight at −20° and then embedded in chilled 2% carboxymethylcellulose (Sigma Aldrich) and sectioned sagittally at a thickness of 40 μm on an H/I Bright 8250 Cryostat (Hacker Instruments). Radioactive control guides were drilled into each block to verify even cutting depth along the length of the section. […]
Quantification of the radioactivity detected in WBA samples was evaluated by measuring the pixel density/mm^2 (“SI”: Signal Intensity/Area−background) using AIDA Image Analyzer v 5.1 Whole Body Autoradiography Professional software (Raytest). […] For quantification, all visible knee or IVD (intervertebral disc) tissues for one rodent across all collected sections were measured and averaged together to generate one knee or IVD value per animal. […] To collect quantified values for other tissues, ROIs were drawn around blood in the heart ventricle, spinotrapezius muscle, the liver, or the kidney (including cortex and medulla) in all sections in which the tissue was observed and then averaged to yield one value per tissue per animal. […]

Data set [2] can be described thus: Immunohistochemistry of knee and ankle sections with anti-peptide(SEQ ID NO: 105) and anti-Dex antibodies. Conditions: mice, 100 nmol IV, three hours. In kind it is in vivo, C57/Bl6 mice. The source says:
Immunohistochemistry methods were developed to detect peptide(SEQ ID NO: 105) and dexamethasone in cartilage of joints using a generated rabbit polyclonal anti-peptide(SEQ ID NO: 105) antibody and a commercially available anti-Dex antibody (Abcam, ab35000). Standard immunization methods were used to generate the anti-peptide(SEQ ID NO: 105) polyclonal antibody, which increases the immunogenicity of the dosed material and are not representative of potential immunogenicity of the unmodified peptide or therapeutic candidate molecules. To produce the immunogen for peptide(SEQ ID NO: 105) antibody generation, peptide(SEQ ID NO: 105) was conjugated to keyhole limpet hemocyanin (KLH) using ImjectTMmcKLH. Peptide(SEQ ID NO: 105)-KLH was administered as part of a pool of other KLH-conjugated peptides emulsified with Freund's complete adjuvant and administered to New Zealand White Rabbits following a standard schedule. The polyclonal antibody was purified from the serum using a HiTrap® mAb Select cartridge (GE Healthcare). Western blot was used to confirm antibody binding to the peptide. […]

Data set [3] can be described thus: Comparison of joint retention time among radiolabeled peptides (QWBA, knee and IVD). In kind it is in vivo. Set-up: Peptide Signal Retention in Knee / Peptide Signal Retention in IVD: unit not given here. As to the method:
Frozen carcasses were allowed to off gas hexane overnight at −20° and then embedded in chilled 2% carboxymethylcellulose (Sigma Aldrich) and sectioned sagittally at a thickness of 40 μm on an H/I Bright 8250 Cryostat (Hacker Instruments). Radioactive control guides were drilled into each block to verify even cutting depth along the length of the section. The radioactive guide consisted of ^14C-Glycine (American Radiolabeled Chemicals, “ARC”) at 0.5 uCi/ml in 0.5% BSA (Sigma Aldrich) in PBS. Sections were collected onto 4-inch wide tape (Scotch 821, ULINE) at 2-4 depths to sample approximately 30 tissues with particular focus on the knees and spine. Collected sections were freeze dried in the cryostat for 48-72 hours then mounted on sturdy paper and covered with a single protective layer of cellophane (Reynolds Food Service Film). Mounted sections were exposed to phosphor imager plates (Raytest) along with a radioactive standard Curve (1465-PL, ARC) for 7-days, scanned on a Raytest CR-35 at “25 μm sensitive” setting.
Quantification of the radioactivity detected in WBA samples was evaluated by measuring the pixel density/mm^2 (“SI”: Signal Intensity/Area−background) using AIDA Image Analyzer v 5.1 Whole Body Autoradiography Professional software (Raytest). Regions of interest (ROIs) were drawn manually around the entire visible tissue, comparing the sectioned sample to the autoradiogram. For quantification, all visible knee or IVD (intervertebral disc) tissues for one rodent across all collected sections were measured and averaged together to generate one knee or IVD value per animal. Typically were sampled 1-2 knee values (from femoral and tibial cartilage) per 1-2 sections per animal and 3-10 IVD per 1-2 sections per animal. To collect quantified values for other tissues, ROIs were drawn around blood in the heart ventricle, spinotrapezius muscle, the liver, or the kidney (including cortex and medulla) in all sections in which the tissue was observed and then averaged to yield one value per tissue per animal.
Data were presented as nmol of compound per gram of tissue. The commercial standard strips co-exposed with each WBA sample set were calibrated so that a known amount of radioactive counts per minute (CPM) per gram of tissue, determined by liquid scintillation counting (LSC), corresponded to the measured WBA SI at 11 standard strip concentration data points. The regression line of the log 10 transformed WBA signal intensity plotted against the log 10 transformed CPM/g gave a linear range of 1×10^5 to 7.5×10^7 WBA SI, corresponding to 6.3 nCi/g to 3.3 μCi/g. The log 10 concentration of radioactivity in each tissue (CPM/g) was interpolated from the standard curve, converted to linear values, and translated from CPM/g to uCi/g by interpolation against an LSC CPM to μCi standard curve. Uptake (nmol of compound/g of tissue) was determined by dividing the μCi/g tissue by the μCi/nmol specific activity of the peptide.
Peptide(SEQ ID NO: 105) was dosed at 57-60 nmol. Peptide(SEQ ID NO: 103) was dosed at 130 nmol. Peptide(SEQ ID NO: 184) was dosed at 150 nmol. […] It should be noted that detection of retention is based on an assay that detects radiolabeling of the N-terminus of each of the tested conjugates, thus decrease in signal over time may be due not only to peptide diffusion back out of the cartilage but also aminopeptidase-mediated removal of N-terminal amino acid, general peptide cleavage, or other mechanisms. Results as measured by QWBA methods described herein are shown in Tables 6 and 7 below and FIG. 11.

Data set [4] in a line: Resistance to chemical reduction (50 mM DTT, LC-MS). The note with it: 50 mM DTT for 60 minutes at room temperature. Type of data set: physicochemical. On the procedure:
The synthetically produced peptides were then analyzed side-by-side with peptides produced in the recombinant expression system as described above in EXAMPLE 1.

“GSGVPINVRCRGSRDCLDPCRRAGMRFGRCINSRCHCTP [peptide(SEQ ID NO: 105)]”: the “accumulation in other tissues of the body” value in data set [1] (400 nmol IV, 1, 3, 24 hrs, except liver and kidney) is on record as “minimal accumulation”. The “signal in cartilage (whole body autoradiography)” value in data set [1] (400 nmol IV, 1 hr, 3 hrs, 24 hrs) was “signal can be detected”. For the same sequence, the “Immunostaining with anti-peptide(SEQ ID NO: 105) antibody in articular cartilage and growth plates of knee joint sections” value in data set [2] is listed as “strong positive staining”. Further, the “Peptide Signal Retention in IVD” value is recorded as 44.42 in data set [3] (0.08 Hours); 101.41 in data set [3] (0.5 Hours); 100.00 in data set [3] (1 Hours); 106.39 in data set [3] (3 Hours); 81.45 in data set [3] (8 Hours); 36.89 in data set [3] (24 Hours). Further, the “Peptide Signal Retention in IVD” value in data set [3] (48 Hours) is on record as 19.96; in data set [3] (72 Hours), 13.43; in data set [3] (96 Hours), 9.17. In addition, the “Peptide Signal Retention in Knee” value in data set [3] (0.08 Hours) worked out at 91.00; in data set [3] (0.5 Hours), 102.49; in data set [3] (1 Hours) it was 100.00; in data set [3] (3 Hours), 72.64; in data set [3] (8 Hours), 42.42; in data set [3] (24 Hours) it was 22.61. Further, the figures for the “Peptide Signal Retention in Knee” value in data set [3] (48 Hours), in data set [3] (72 Hours) and in data set [3] (96 Hours) were 9.73, 8.76 and 5.05, respectively. In data set [4], the “resistance to chemical reduction” value was “very little formation of a new peak”.
